# Test results as given in US20260256792A1, “TREATMENT OF CHRONIC SPONTANEOUS URTICARIA BY ADMINISTERING (R)-2-[3-[4-AMINO-3-(2-FLUORO-4-PHENOXY-PHENYL)PYRAZOLO[3,4-D]PYRIMIDIN-1-YL]PIPERIDINE-1-CARBONYL]-4-METHYL-4-[4-(OXETAN-3-YL)PIPERAZIN-1-YL]PENT-2-ENENITRILE” (priority 2023, published 2026).
# System: moderate-to-severe chronic spontaneous urticaria (CSU)
# Test: Phase 2 CSU study: hives severity score over 7 days (HSS7)
# Type: in vivo, human
# Set-up: key to HSS7 Change from baseline, Median / HSS7, Median / HSS7, Max / HSS7 Change from baseline, Q1 / HSS7 Change from baseline, Q3 / HSS7 Change from baseline, Max: 7-day sum of daily hive scores, each 0 = none to 3 = >50 hives
# Source text: The study comprises a 12 week, randomized, double-blind, placebo-controlled, multi-center, dose-ranging efficacy and safety phase, followed by a 40 week open label extension (OLE) phase (see FIG. 1).
# The study consists of three phases and an optional OLE phase.
# The UAS is a validated PRO measure. The daily UAS is the sum of the daily Hive Severity Score (HSS, ranging from 0=None to 3=more than 50 hives) and the daily Itch Severity Score (ISS, ranging from 0=None to 3=intense), the 2 key urticaria signs and symptoms which are wheals and itch. The daily UAS scores range from 0 to 6 point/day. Daily UAS scores are summed over 7-day period to create the UAS7, ranging from 0 to 42, and are composed of the HSS7 and ISS7 components. […] Patients were to complete the UAS using the e-diary. The e-diary was to be used once daily on the same time of each day recording of participant's answers to the urticaria activity score over 7 days (UAS7) questionnaire. For participants who entered the OLE phase, their answers to the UAS7 questionnaire were also to be collected from Week 20 to Week24 and from Week 48 to Week 52.
# The following secondary endpoints were to be analyzed using the same approach as for the primary endpoint: • Change from baseline in UAS7 at Week 4 • Change from baseline in UAS7 at Week 12 (for US and US reference countries) • Change from baseline in ISS7 at Week 12 (except US and US reference countries) • Change from baseline in HSS7 at Week 12
# [1] = 400 mg QPM, Week 10, ITT Population
# [2] = 400 mg QPM, Week 11, ITT Population
# [3] = 400 mg QPM, Week 12, ITT population
# [4] = 400 mg QPM, Week 12, Omalizumab-Naïve Population
# [5] = 400 mg TID, Omalizumab-Naïve Population, last block under Week 12, double-blind period, WOCF imputation
# [6] = 400 mg TID, Week 1, ITT Population
# [7] = 400 mg TID, Week 1, Omalizumab-Naïve Population
# [8] = 400 mg TID, Week 2, ITT Population
# [9] = 400 mg TID, Week 2, Omalizumab-Naïve Population
# [10] = 400 mg TID, Week 3, ITT Population
# [11] = 400 mg TID, Week 3, Omalizumab-Naïve Population
# [12] = 400 mg TID, Week 4, ITT population
# [13] = 400 mg TID, Week 4, Omalizumab-Naïve Population
# [14] = 400 mg TID, Week 5, ITT Population
# [15] = 400 mg TID, Week 5, Omalizumab-Naïve Population
# [16] = 400 mg TID, Week 6, ITT Population
# [17] = 400 mg TID, Week 6, Omalizumab-Naïve Population
# [18] = 400 mg TID, Week 7, ITT Population
# [19] = 400 mg TID, Week 7, Omalizumab-Naïve Population
# [20] = 400 mg TID, Week 8, ITT population
# [21] = 400 mg TID, Week 8, Omalizumab-Naïve Population
compound,measurement,setting,value
"CC(C)(C=C(C#N)C(=O)N1CCC[C@@H](n2nc(-c3ccc(Oc4ccccc4)cc3F)c3c(N)ncnc32)C1)N1CCN(C2COC2)CC1 [rilzabrutinib, (R)-2-[3-[4-amino-3-(2-fluoro-4-phenoxy-phenyl)pyrazolo[3,4-d]pyrimidin-1-yl]piperidine-1-carbonyl]-4-methyl-4-[4-(oxetan-3-yl)piperazin-1-yl]pent-2-enenitrile]",HSS7 % Change difference for rilzabrutinib vs.placebo LS Mean (95% CI),[1],−6.70 %
same,HSS7 % Change from baseline LS Mean (SE),[1],−34.70 (6.79) %
same,HSS7 Change difference for rilzabrutinib vs.placebo LS Mean (95% CI),[1],"−0.56 (−3.19, 2.07)"
same,HSS7 Change from baseline LS Mean (SE),[1],−5.16 (0.98)
same,HSS7 Postbaseline Mean (SD),[1],9.82 (5.85)
same,HSS7 Postbaseline Mean (SD),"400 mg QPM, Week 10, Omalizumab-Naïve Population",9.88 (5.93)
same,HSS7 Postbaseline Mean (SD),"400 mg QPM, Week 10, Omalizumab-Naïve Population with Outlier Removed from Analysis",9.88 (5.93)
same,HSS7 % Change difference for rilzabrutinib vs.placebo LS Mean (95% CI),[2],−8.01 %
same,HSS7 % Change from baseline LS Mean (SE),[2],−34.56 (7.07) %
same,HSS7 Change difference for rilzabrutinib vs.placebo LS Mean (95% CI),[2],"−0.43 (−3.08, 2.22)"
same,HSS7 Change from baseline LS Mean (SE),[2],−4.97 (0.99)
same,HSS7 Postbaseline Mean (SD),[2],10.15 (6.09)
same,HSS7 Postbaseline Mean (SD),"400 mg QPM, Week 11, Omalizumab-Naïve Population",10.18 (6.18)
same,HSS7 Postbaseline Mean (SD),"400 mg QPM, Week 11, Omalizumab-Naïve Population with Outlier Removed from Analysis",10.18 (6.18)
same,HSS7 % Change difference for rilzabrutinib vs.placebo LS Mean (95% CI),[3],−5.74 %
same,HSS7 % Change from baseline LS Mean (SE),[3],−33.48 (7.28) %
same,HSS7 Change difference for rilzabrutinib vs.placebo LS Mean (95% CI),[3],"0.14 (−2.62, 2.91)"
same,HSS7 Change from baseline LS Mean (SE),[3],−4.75 (1.03)
same,HSS7 Change difference for rilzabrutinib vs.placebo LS Mean (95% CI),[4],"−0.09 (−2.92, 2.75)"
same,HSS7 Change from baseline LS Mean (SE),[4],−4.49 (1.04)
same,median reduction in HSS7 at Week 12,"400 mg TID, ITT population",−8.31 points
same,"HSS7, Max",[5],16.0
same,"HSS7, Min",[5],2.0
same,"HSS7 Change from baseline, Max",[5],0.0
same,"HSS7 Change from baseline, Mean (SD)",[5],−5.20 (3.11)
same,"HSS7 Change from baseline, Median",[5],−6.00
same,"HSS7 Change from baseline, Min",[5],−8.0
same,"HSS7 Change from baseline, Q1",[5],−7.00
same,"HSS7 Change from baseline, Q3",[5],−5.00
same,"HSS7 Percent change from baseline, Max",[5],0.0%
same,"HSS7 Percent change from baseline, Mean (SD)",[5],−38.89 (26.61) percent
same,"HSS7 Percent change from baseline, Median",[5],−44.44%
same,"HSS7 Percent change from baseline, Min",[5],−71.4%
same,"HSS7 Percent change from baseline, Q1",[5],−50.00%
same,"HSS7 Percent change from baseline, Q3",[5],−28.57%
same,HSS7 % Change difference for rilzabrutinib vs.placebo LS Mean (95% CI),[6],−30.65 %
same,HSS7 % Change from baseline LS Mean (SE),[6],−39.34 (5.49) %
same,HSS7 Change from baseline LS Mean (SE),[6],−6.09 (0.74)
same,HSS7 Postbaseline Mean (SD),[6],7.76 (4.83)
same,HSS7 % Change difference for rilzabrutinib vs.placebo LS Mean (95% CI),[7],−27.41 %
same,HSS7 % Change from baseline LS Mean (SE),[7],−34.85 (6.00) %
same,HSS7 Change from baseline LS Mean (SE),[7],−5.32 (0.79)
same,HSS7 Postbaseline Mean (SD),[7],8.26 (4.91)
same,HSS7 Postbaseline Mean (SD),"400 mg TID, Week 1, Omalizumab-Naïve Population with Outlier Removed from Analysis",8.50 (4.76)
same,HSS7 % Change difference for rilzabrutinib vs.placebo LS Mean (95% CI),[8],−30.93 %
same,HSS7 % Change from baseline LS Mean (SE),[8],−47.49 (5.64) %
same,HSS7 Change difference for rilzabrutinib vs.placebo LS Mean (95% CI),[8],"−4.24 (−6.33, −2.15)"
same,HSS7 Change from baseline LS Mean (SE),[8],−7.16 (0.77)
same,HSS7 Postbaseline Mean (SD),[8],6.61 (5.06)
same,HSS7 % Change difference for rilzabrutinib vs.placebo LS Mean (95% CI),[9],−27.36 %
same,HSS7 % Change from baseline LS Mean (SE),[9],−42.63 (6.08) %
same,HSS7 Postbaseline Mean (SD),[9],7.25 (5.05)
same,HSS7 Postbaseline Mean (SD),"400 mg TID, Week 2, Omalizumab-Naïve Population with Outlier Removed from Analysis",7.44 (5.01)
same,HSS7 % Change difference for rilzabrutinib vs.placebo LS Mean (95% CI),[10],−29.56 %
same,HSS7 % Change from baseline LS Mean (SE),[10],−48.71 (5.82) %
same,HSS7 Change difference for rilzabrutinib vs.placebo LS Mean (95% CI),[10],"−3.79 (−5.97, −1.61)"
same,HSS7 Change from baseline LS Mean (SE),[10],−7.29 (0.81)
same,HSS7 Postbaseline Mean (SD),[10],6.49 (4.72)
same,HSS7 % Change difference for rilzabrutinib vs.placebo LS Mean (95% CI),[11],−27.37 %
same,HSS7 % Change from baseline LS Mean (SE),[11],−45.07 (6.36) %
same,HSS7 Postbaseline Mean (SD),[11],7.03 (4.82)
same,HSS7 Postbaseline Mean (SD),"400 mg TID, Week 3, Omalizumab-Naïve Population with Outlier Removed from Analysis",7.03 (4.89)
same,HSS7 % Change difference for rilzabrutinib vs.placebo LS Mean (95% CI),[12],−29.20 %
same,HSS7 % Change from baseline LS Mean (SE),[12],−47.90 (5.95) %
same,HSS7 Change difference for rilzabrutinib vs.placebo LS Mean (95% CI),[12],"−3.53 (−5.74, −1.31)"
same,HSS7 Change from baseline LS Mean (SE),[12],−6.98 (0.82)
same,HSS7 Postbaseline Mean (SD),[12],6.39 (4.92)
same,HSS7 % Change difference for rilzabrutinib vs.placebo LS Mean (95% CI),[13],−28.82 %
same,HSS7 % Change from baseline LS Mean (SE),[13],−44.69 (6.50) %
same,HSS7 Postbaseline Mean (SD),[13],6.85 (4.96)
same,HSS7 Postbaseline Mean (SD),"400 mg TID, Week 4, Omalizumab-Naïve Population with Outlier Removed from Analysis",6.85 (4.96)
same,HSS7 % Change difference for rilzabrutinib vs.placebo LS Mean (95% CI),[14],−23.13 %
same,HSS7 % Change from baseline LS Mean (SE),[14],−52.29 (5.80) %
same,HSS7 Change difference for rilzabrutinib vs.placebo LS Mean (95% CI),[14],"−3.09 (−5.36, −0.81)"
same,HSS7 Change from baseline LS Mean (SE),[14],−7.73 (0.84)
same,HSS7 Postbaseline Mean (SD),[14],6.02 (5.11)
same,HSS7 % Change difference for rilzabrutinib vs.placebo LS Mean (95% CI),[15],−18.86 %
same,HSS7 % Change from baseline LS Mean (SE),[15],−49.42 (6.23) %
same,HSS7 Postbaseline Mean (SD),[15],6.49 (5.14)
same,HSS7 Postbaseline Mean (SD),"400 mg TID, Week 5, Omalizumab-Naïve Population with Outlier Removed from Analysis",6.49 (5.14)
same,HSS7 % Change difference for rilzabrutinib vs.placebo LS Mean (95% CI),[16],−28.20 %
same,HSS7 % Change from baseline LS Mean (SE),[16],−52.27 (6.61) %
same,HSS7 Change difference for rilzabrutinib vs.placebo LS Mean (95% CI),[16],"−3.48 (−5.94, −1.02)"
same,HSS7 Change from baseline LS Mean (SE),[16],−7.75 (0.91)
same,HSS7 Postbaseline Mean (SD),[16],6.14 (5.55)
same,HSS7 % Change difference for rilzabrutinib vs.placebo LS Mean (95% CI),[17],−24.11 %
same,HSS7 % Change from baseline LS Mean (SE),[17],−48.15 (7.17) %
same,HSS7 Postbaseline Mean (SD),[17],6.78 (5.55)
same,HSS7 Postbaseline Mean (SD),"400 mg TID, Week 6, Omalizumab-Naïve Population with Outlier Removed from Analysis",6.78 (5.55)
same,HSS7 % Change difference for rilzabrutinib vs.placebo LS Mean (95% CI),[18],−27.16 %
same,HSS7 % Change from baseline LS Mean (SE),[18],−51.12 (6.01) %
same,HSS7 Change difference for rilzabrutinib vs.placebo LS Mean (95% CI),[18],"−3.58 (−5.87, −1.29)"
same,HSS7 Change from baseline LS Mean (SE),[18],−7.66 (0.86)
same,HSS7 Postbaseline Mean (SD),[18],6.18 (4.44)
same,HSS7 % Change difference for rilzabrutinib vs.placebo LS Mean (95% CI),[19],−24.63 %
same,HSS7 Postbaseline Mean (SD),[19],6.40 (4.54)
same,HSS7 Postbaseline Mean (SD),"400 mg TID, Week 7, Omalizumab-Naïve Population with Outlier Removed from Analysis",6.40 (4.54)
same,HSS7 % Change difference for rilzabrutinib vs.placebo LS Mean (95% CI),[20],−25.27 %
same,HSS7 % Change from baseline LS Mean (SE),[20],−54.34 (6.35) %
same,HSS7 Change difference for rilzabrutinib vs.placebo LS Mean (95% CI),[20],"−3.06 (−5.54, −0.58)"
same,HSS7 Change from baseline LS Mean (SE),[20],−7.81 (0.92)
same,HSS7 Postbaseline Mean (SD),[20],5.60 (4.81)
same,HSS7 % Change difference for rilzabrutinib vs.placebo LS Mean (95% CI),[21],−22.36 %
same,HSS7 % Change from baseline LS Mean (SE),[21],−50.37 (7.07) %
